Results published in patent US20110105389A1 (priority 2009, published 2011).
Read-outs that look alike come from different tables or passages of the source.

Assays:
[1] = target: T1, human ghrelin receptor (GRLN, growth hormone secretagogue receptor, hGHS-R1a) (Homo sapiens, UniProt Q92847); experiment: Competitive radioligand binding assay (ghrelin receptor), Method B1
T1 construct: purchased PerkinElmer BioSignal #RBHGHSM, lot#1887; host or cells: HEK-293 cells, stably transfected (membranes)
T1 sequence (Q92847 whole entry): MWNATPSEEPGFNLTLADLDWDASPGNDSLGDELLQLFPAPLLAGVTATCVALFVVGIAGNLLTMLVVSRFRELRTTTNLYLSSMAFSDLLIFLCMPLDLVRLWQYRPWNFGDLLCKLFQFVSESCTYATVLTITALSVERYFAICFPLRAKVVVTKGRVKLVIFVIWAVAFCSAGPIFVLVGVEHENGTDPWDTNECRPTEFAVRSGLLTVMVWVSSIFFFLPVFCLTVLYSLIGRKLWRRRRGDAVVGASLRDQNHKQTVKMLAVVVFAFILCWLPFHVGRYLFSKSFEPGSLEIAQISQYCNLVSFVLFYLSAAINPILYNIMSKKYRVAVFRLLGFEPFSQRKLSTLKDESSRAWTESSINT
Procedure, shortened: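 Filtration competition format: bound radioactivity counted after GF/C harvesting and cold 50 mM Tris-HCl washes. Incubation lasted 30 min at room temperature in Hepes pH 7.4 buffer with Ca2+, Mg2+, EDTA and 0.4% BSA (DMSO ≤0.1% final); values from variable-slope non-linear regression.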

[2] = target: T2, ghrelin receptor (HEK-GHSR1 stable cells) (Homo sapiens, UniProt Q92847); experiment: Ghrelin receptor inverse agonist assay (HTRF IP-one), Method B4; assay type: cell-based
T2 construct: expressed in transfected cells
T2 sequence (Q92847 whole entry): as above
Procedure, shortened: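 HEK cells stably expressing GHSR1, seeded at 100 000 cells/well overnight, exposed to compound for 30 min at 37° C. Cells then lysed and IP1 accumulation measured by HTRF (d2 plus anti-IP1 cryptate, 1 h at room temp). Wells lacking d2 served as negative control.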

[3] = Metabolic stability in human liver microsomes, Method B8; assay type: in vitro ADME; details: human liver microsomes 0.8 mg/mL, 5 μM compound, 37° C.
Procedure, shortened: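 Pooled human liver microsomes (15 mixed-sex donors) at 0.8 mg/mL in 100 mM potassium phosphate, pH 7.4, with 1.5 mM NADPH and 8 mM MgCl2. Compounds tested in duplicate at a single 5 μM (0.05% DMSO), incubated at 37° C.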

[4] = Ghrelin receptor binding activity, Method B1
[5] = inverse agonist at the ghrelin receptor, Method B4

| IC50 [1] [nM] | IC50 [2] [nM] | HLM, metabolic stability in human liver microsomes [3] [μL/min/mg protein] | IC50 [1, 4] [nM] | IC50 [2, 5] [nM] | Structure (SMILES) |
| --- | --- | --- | --- | --- | --- |
| 1 to 10 | 10 to 50 |  |  |  | Cc1cccc(C[C@H]2NC(=O)[C@H](C(C)O)N(C)C(=O)[C@H](C(C)C)NCCOc3ccccc3C[C@H](O)CNC2=O)c1 (stereo partly drawn) [Compound 1453] |
| 1 to 10 | 10 to 50 | 20.9 |  |  | CC(C)[C@@H]1NCCOc2ccccc2C[C@H](O)[C@@H](C)NC(=O)[C@@H](Cc2cccc(F)c2)NC(=O)[C@H](C(C)O)N(C)C1=O (stereo partly drawn) [Compound 1503] |
| 1 to 10 | 100 to 500 | 51.5 |  |  | CC[C@@H]1CCc2ccc(F)cc2OCCN[C@@H](C(C)C)C(=O)N(C)[C@@H](C(C)O)C(=O)N[C@H](Cc2c[nH]c3ccccc23)C(=O)N1 (stereo partly drawn) [Compound 1505] |
| 1 to 10 | 50 to 100 | 41.4 |  |  | CC(C)[C@@H]1NCCOc2ccccc2C#C[C@@H](C)NC(=O)[C@@H](Cc2ccccc2)NC(=O)[C@H](C(C)O)N(C)C1=O (stereo partly drawn) [Compound 1688] |
|  |  | 121 | 1 to 10 | 100 to 500 | CC(C)C1NCCOc2ccccc2C#CCNC(=O)C(Cc2c[nH]c3ccccc23)NC(=O)C(C(C)O)N(C)C1=O (stereo not drawn) [Compound 1692] |
|  |  | 44.8 | 1 to 10 | 50 to 100 | CCC1CCc2ccc(F)cc2OCCNC(C2(C)CC2)C(=O)N(C)C(C(C)O)C(=O)NC(Cc2c[nH]c3ccccc23)C(=O)N1 (stereo not drawn) [Compound 1703] |
|  |  | 27.3 | 10 to 100 | 100 to 500 | CC[C@@H]1C#Cc2ccc(F)cc2O[C@H](C)CN[C@@H](C2(C)CC2)C(=O)N(C)[C@@H](C(C)O)C(=O)N[C@H](Cc2c[nH]c3ccccc23)C(=O)N1 (stereo partly drawn) [Compound 1707] |
| 1 to 10 | 50 to 100 | 58.2 |  |  | CC(C)[C@@H]1NCCOc2ccccc2C#CCNC(=O)[C@@H](Cc2ccccc2)NC(=O)[C@H](C(C)O)N(C)C1=O (stereo partly drawn) [Compound 1712] |
|  |  | 48.8 | 1 to 10 | 50 to 100 | CC(O)[C@H]1C(=O)N[C@H](Cc2c[nH]c3ccccc23)C(=O)N[C@H](C)C#Cc2ccccc2OCCN[C@@H](C2(C)CC2)C(=O)N1C (stereo partly drawn) [Compound 1713] |
|  |  | 43.6 | 1 to 10 | 50 to 100 | CC[C@@H]1C#Cc2ccccc2O[C@H](C)CN[C@@H](C2(C)CC2)C(=O)N(C)[C@@H](C(C)O)C(=O)N[C@H](Cc2c[nH]c3ccccc23)C(=O)N1 (stereo partly drawn) [Compound 1718] |
|  |  | 23.4 | 10 to 100 | 100 to 500 | CC(O)[C@H]1C(=O)N[C@H](Cc2c[nH]c3ccccc23)C(=O)N[C@H](C)CCc2ccc(F)cc2O[C@H](C)CN[C@@H](C2(C)CC2)C(=O)N1C (stereo partly drawn) [Compound 1719] |
|  |  | 41.5 | 10 to 100 | 50 to 100 | CC[C@@H]1C#Cc2c(F)cccc2OCCN[C@@H](C(C)C)C(=O)N(C)[C@@H](C(C)O)C(=O)N[C@H](Cc2c[nH]c3ccccc23)C(=O)N1 (stereo partly drawn) [Compound 1726] |
|  |  | 38.6 | 1 to 10 | 50 to 100 | CC[C@@H]1CCc2ccc(F)cc2OCCN[C@@H](C2(C)CC2)C(=O)N(C)[C@@H](C(C)O)C(=O)N[C@H](Cc2ccccc2)C(=O)N1 (stereo partly drawn) [Compound 1746] |
|  |  | 109.6 | 1 to 10 | 100 to 500 | CC[C@@H]1CCc2ccc(F)cc2OCCN[C@@H](C(C)C)C(=O)N(C)[C@@H](C(C)O)C(=O)N[C@H](Cc2ccc(O)cc2)C(=O)N1 (stereo partly drawn) [Compound 1751] |
|  |  | 43.7 | 1 to 10 | 50 to 100 | CC[C@@H]1C#Cc2ccccc2OCCN[C@@H](C(C)C)C(=O)N(C)[C@@H](C(C)O)C(=O)N[C@H](Cc2c[nH]c3ccccc23)C(=O)N1 (stereo partly drawn) [Compound 1754] |
|  |  | 47.8 | 1 to 10 | 50 to 100 | CC[C@@H]1C#Cc2ccc(F)cc2OCCN[C@@H](C(C)C)C(=O)N(C)[C@@H](C(C)O)C(=O)N[C@H](Cc2c[nH]c3ccccc23)C(=O)N1 (stereo partly drawn) [Compound 1755] |
|  |  | 39.6 | 1 to 10 | 50 to 100 | CC(C)[C@@H]1NCC2CCc3cccc(c3O2)CCCNC(=O)[C@@H](Cc2ccccc2)NC(=O)[C@H](C(C)O)N(C)C1=O (stereo partly drawn) [Compound 1777] |
| 10 to 100 | 100 to 500 | 58.1 |  |  | CC(O)[C@H]1C(=O)N[C@H](Cc2ccccc2)C(=O)NCCCc2cccc3c2OC(CC3)CN[C@@H](C2CC2)C(=O)N1C (stereo partly drawn) [Compound 1778] |
| 10 to 100 | 50 to 100 | 25.3 |  |  | CC[C@@H]1NCC2CCc3cccc(c3O2)CCCNC(=O)[C@@H](Cc2ccccc2)NC(=O)[C@H](C(C)O)N(C)C1=O (stereo partly drawn) [Compound 1780] |
|  |  | 33.7 | 10 to 100 | 10 to 50 | CC(C)[C@@H]1NCCOc2ccccc2C2CCC(C2)NC(=O)[C@@H](Cc2c[nH]c3ccccc23)NC(=O)[C@H](C(C)O)N(C)C1=O (stereo partly drawn) [Compound 1843] |
|  |  | 60.7 |  |  | CC(C)[C@@H]1NCCOc2ccccc2C2CCC(C2)NC(=O)[C@@H](Cc2ccccc2)NC(=O)[C@H](C(C)O)N(C)C1=O (stereo partly drawn) [Compound 1848] |
| 1 to 10 | 50 to 100 | 30.9 |  |  | CC(O)[C@H]1C(=O)N[C@H](Cc2ccccc2)C(=O)NCC#Cc2c(F)cccc2OCCN[C@@H](C2(C)CC2)C(=O)N1C (stereo partly drawn) [Compound 1876] |
| 1 to 10 | 10 to 50 | 34.7 |  |  | CC(O)[C@H]1C(=O)N[C@H](Cc2ccccc2)C(=O)NCC#Cc2ccccc2OCCN[C@@H](C2(C)CC2)C(=O)N1C (stereo partly drawn) [Compound 1878] |
|  |  | 47.9 |  |  | CC(C)[C@@H]1NCCOc2ccccc2C2CCC(C2)NC(=O)[C@@H](Cc2ccc(F)cc2)NC(=O)[C@H](C(C)O)N(C)C1=O (stereo partly drawn) [Compound 1903] |
| 1 to 10 | 50 to 100 | 14.3 |  |  | CC(O)[C@H]1C(=O)N[C@H](Cc2ccccc2)C(=O)NCC#Cc2ccc(F)cc2OCCN[C@@H](C2(C)CC2)C(=O)N1C (stereo partly drawn) [Compound 1918] |
| 1 to 10 | 50 to 100 |  |  |  | CC(C)[C@@H]1NCCOc2cccc(F)c2C#CCNC(=O)[C@@H](Cc2ccccc2)NC(=O)[C@H](C(C)O)N(C)C1=O (stereo partly drawn) [Compound 1929] |

| Structure (SMILES) | IC50 [1] [nM] | IC50 [2] [nM] | HLM, metabolic stability in human liver microsomes [3] [μL/min/mg protein] | IC50 [1, 4] [nM] | IC50 [2, 5] [nM] |
| --- | --- | --- | --- | --- | --- |
| CC(C)C1NCCOc2cc(F)ccc2C#CCNC(=O)C(Cc2c[nH]c3ccccc23)NC(=O)C(C(C)O)N(C)C1=O (stereo not drawn) [Compound 1693] |  |  | 83.8 | 10 to 100 | 100 to 500 |
| CC(O)[C@H]1C(=O)N[C@H](Cc2c[nH]c3ccccc23)C(=O)N[C@H](C)C#Cc2ccc(F)cc2O[C@H](C)CN[C@@H](C2(C)CC2)C(=O)N1C (stereo partly drawn) [Compound 1720] |  |  | 23.2 | 10 to 100 | 100 to 500 |
